According to BindingDB's records for doi:10.1021/acs.jmedchem.9b01317 (Fudan University, 2020):

Assay: Inhibition of RIPK3 in human HT-29 cells assessed as reduction in TSZ-induced necroptosis by Cell Titer Glo assay

CC(=O)O[C@@H]1CCC(C)(C)[C@H]2C[C@@H](O)C3=C[C@@H](CCC(=O)[C@@]21C)[C@H](C)C3=O
IC50: 0.2 µM
